Converted amounts (≈) assume the structure as drawn. Where two headings read alike, the source gives them in different places.
What was measured:
Assay type in all cases: cell-based
[1] = test system: Aspergillus fumigatus NCPF2010; experiment: Planktonic fungus growth: broth microdilution assay (NCPF2010)
Protocol: (§1) This assay was conducted using a modified method published by EUCAST (Rodriguez-Tudela, et al., 2008). Spores of Aspergillus fumigatus (NCPF2010, NCPF7010 [methionine 220 mutation], NCPF7099 [Glycine G54 mutation]) from Public Health England, Wiltshire; TR34/L98H mutants from St Louis Hospital, Paris, France; TR46/Y121F/T289A mutants from University of Delhi, Delhi, India) were cultured in Sabouraud dextrose agar for 3 days. A stock spore suspension was prepared from a Sabouraud dextrose agar culture by washing with PBS-tween (10 mL; phosphate buffered saline containing 0.05% Tween-20, 100 U/mL penicillin and 100 U/mL streptomycin). The spore count was assessed using a Neubauer haemocytometer and then adjusted to 10^6 spores/mL with PBS. A working suspension of spores (2×10^5 spores/mL) was prepared in filter sterilised, BSA MOPS RPMI-1640 (50 mL; RPMI-1640 containing 2 mM L-glutamine, 0.5% BSA, 2% glucose, 0.165 M MOPS, buffered to pH 7 with NaOH).
(§2) For the assay, BSA MOPS RPMI-1640 (50 μL/well) was added throughout the 384-well plate (Catalogue number 353962, BD Falcon, Oxford, UK) first. Test compounds (0.5 μL DMSO solution) were then added in quadruplicate using an Integra VIAFLO 96 (Integra, Zizers, Switzerland), and mixed well using a plate mixer. Subsequently 50 μL of the working spore suspension prepared above was added to all wells except non-spore control wells. For non-spore control wells, BSA MOPS-RPMI solution (50 μL/well) was added instead. The plate was covered with a plastic lid, and incubated (35° C. with ambient air) for 48 hr. The OD of each well at 530 nm was determined using a multi-scanner (Clariostar: BMG, Buckinghamshire, UK). The percentage inhibition for each well was calculated and the MIC50, MIC75 and MIC90 values were calculated from the concentration-response curve generated for each test compound.

[2] = test system: Aspergillus fumigatus L98H (TR34/L98H); experiment: Planktonic fungus growth: broth microdilution assay (L98H); details: for MIC: Aspergillus fumigatus, read-out: MIC75 Values against Aspergillus fumigatus isolate L98H
Protocol: as §1, §2

[3] = test system: Aspergillus fumigatus TR46 (TR46/Y121F/T289A); experiment: Planktonic fungus growth: broth microdilution assay (TR46); details: for MIC: Aspergillus fumigatus, read-out: MIC75 Values against Aspergillus fumigatus isolate TR46
Protocol: as §1, §2

[4] = test system: Aspergillus fumigatus NCPF7099; experiment: Planktonic fungus growth: broth microdilution assay (NCPF7099)
Protocol: as §1, §2

[5] = test system: Aspergillus fumigatus NCPF7100; experiment: Planktonic fungus growth: broth microdilution assay (NCPF7100); details: for MIC: Aspergillus fumigatus, NCPF7100, read-out: MIC75 Values against Aspergillus fumigatus isolate NCPF7100
BEAS2B cells = experiment: Cell viability: resazurin assay; details: for effect on the viability of BEAS2B bronchial epithelial cells: at concentrations indicated in Table 4
Protocol: (§3) BEAS2B cells were seeded in 384-well plates (100 μL; 3000/well/; BD Falcon, Catalogue No 353962) in RPMI-LHC8 (RPMI-1640 and LHC8 media combined in equal proportions) one day before experimentation. For cell-free control wells, RPMI-LHC8 (100 μL) was added. Test compounds (0.5 μL of a DMSO solution) were added to give a final DMSO concentration of 0.5% using an Integra VIAFLO 96 (Integra, Zizers, Switzerland). BEAS2B cells were incubated with each test compound for 1 day (37° C./5% CO2 in RPMI-LHC8). After addition of resazurin stock solution (5 μL, 0.04%) the plates were incubated for a further 4 hr (37° C./5% CO2). The fluorescence of each well at 545 nm (excitation) and 590 nm (emission) was determined using a multi-scanner (Clariostar: BMG Labtech). The percentage loss of cell viability was calculated for each well relative to vehicle (0.5% DMSO) treatment. Where appropriate, a CC50 value was calculated from the concentration-response curve generated from the concentration-response curve for each test compound.

[6] = test system: Aspergillus fumigatus (azole resistant strain: TR34/L98H); experiment: Aspergillus fumigatus infection of human alveoli bilayers (transwells), azole resistant strain; details: TR34-L98H, Compound 0.3 μg/mL upper chamber, posaconazole 0.1 μg/mL lower chamber, combination of both
Protocol: In vitro models of human alveoli, consisting of a bilayer of human alveolar epithelial cells and endothelial cells, were prepared as previously described (Hope et al., 2007). This system allows administration of a test compound to the upper (“air” space) and/or lower (“systemic” space) compartments. This flexibility has been exploited to explore the effects of combination treatment by dosing Compound (I) to the upper chamber and posaconazole or other anti-fungal agents to the lower chamber. Primary human pulmonary artery endothelial cells (HPAEC) were harvested and diluted to 10^6 cells/mL in EGM-2 media (Lonza, Basel, Switzerland). Transwells were inverted and the cell suspension (100 μL/well) applied to the base of each transwell. The inverted transwells were incubated at RT within a flow hood for 2 hr after which they were turned upright. EGM-2 media was added to the lower (700 μL/well) and upper (100 μL/well) compartments and the transwells were incubated for 48 hr (37° C., 5% CO2). The EGM-2 media in the lower compartment was then replaced with fresh EGM-2 media. A549 cells were harvested and diluted to 5×10^5 cells/mL in 10% EBM, then added to the upper compartment (100 μL/well) of all transwells and the plates incubated for 72 hr (37° C., 5% CO2). Conidia of itraconazole sensitive Aspergillus fumigatus s (NCPF2010) and itraconazole resistant (TR34-L98H) strains were cultured separately in Sabouraud dextrose agar for 3 days. A stock conidia suspension of either strain was prepared from a Sabouraud dextrose agar culture by washing with PBS-tween (10 mL; PBS containing 0.05% Tween-20, 100 U/mL Penicillin and 100 U/mL Streptomycin). The conidia count was assessed using a Neubauer haemocytometer and adjusted to 10^6 conidia/mL with PBS. A working stock of conidia was prepared in EBM (10^5 conidia/mL) immediately prior to use.
Test and reference compounds (or neat DMSO as the vehicle) were added to the appropriate wells of 24-well plates (3 μL/well containing 600 μL of 2% FBS EBM) for lower compartment treatment and to 96-well plates (1 μL/well containing 200 μL of 2% FBS EBM) for the treatment of the upper compartment, to provide a final DMSO concentration of 0.5%. The media in the upper compartment was aspirated and that containing the appropriate test and reference compounds, or vehicle, were added (100 μL/well). Transwells were then transferred into the 24-well plate containing the test and reference compounds or DMSO vehicle. After incubation for 1 hr (35° C., 5% CO2) the conidia suspension (10 μL/well) was added to the upper compartment of each transwell. Plates were then incubated for 24 hr (35° C., 5% CO2). Supernatants from each compartment (5 μL/compartment) were collected and stored (−20° C.). Media was replaced daily after collection of the supernatants and all wells were treated with test and reference compounds or with DMSO, as described above, for 3 days. Samples continued to be collected until fungal growth was visible by eye in all transwells. The levels of GM in the supernatant in lower compartment were then measured by ELISA (BioRad, CA, USA) as an index of Aspergillus fumigatus invasion.

[7] = Cell viability: resazurin assay; details: human, BEAS2B cells; 1 day incubation, resazurin; n = 3
Protocol: as §3

[8] = test system: Aspergillus fumigatus (NCPF2010); experiment: Aspergillus fumigatus infection of BEAS2B bronchial epithelial cells (galactomannan); details: NCPF2010, 24 h, read-out: Infection of BEAS2B cells MIC50
Protocol: BEAS2B cells were seeded in 96-well plates (100 μL; 3×10^4 cells/well; Catalogue No 3596, Sigma Aldrich, Dorset, UK) in 10% FBS RPMI-1640 and were then incubated (37° C., 5% CO2) for one day before experimentation. Test compounds (0.5 μL DMSO solution) or vehicle (DMSO) were added to each well to give a final DMSO concentration of 0.5%. BEAS2B cells were incubated with test compounds for 1 hr (35° C., 5% CO2) before infection with Aspergillus fumigatus (20 uL; Public Health England) conidia suspension (0.5×10^5/mL in 10% FBS RPMI-1640). The plate was incubated for 24 hr (35° C., 5% CO2). Supernatant (50 uL) was collected and transferred to a PCR plate (Catalogue No L1402-9700, Starlab, Milton Keynes, UK), which was frozen (−20° C.) until use. After thawing, supernatant (5 μL) was diluted 1:20 by adding R7-PBS solution (95 μL; 1:4 R7 to PBS; Bio-Rad Laboratories, Redmond, Wash., USA). Galactomannan levels in these samples (50 μL) were measured using Platelia GM-EIA kits (Bio-Rad Laboratories, Redmond, Wash., USA). The percentage inhibition for each well was calculated and the IC50 value was calculated from the concentration-response curve generated for each test compound.

[9] = broth microdilution assay, n = 2-3
[10] = Aspergillus fumigatus, NCPF2010, n = 2-3, read-out: MIC75 Values against Aspergillus fumigatus isolate NCPF2010
[11] = Aspergillus fumigatus, NCPF7099, n = 2-3, read-out: MIC75 Values against Aspergillus fumigatus isolate NCPF7099

Row | SMILES | MIC [1, 10] | MIC [2] | MIC [3] | MIC [4, 11] | MIC [5] | CC50 at 1 day [7] | effect on the viability of BEAS2B bronchial epithelial cells (BEAS2B cells) | also measured
1 | C[C@@H]1[C@H](O)[C@@H](C)/C=C/C=C/C=C/C=C/C=C/C=C/C=C/[C@H](O[C@@H]2O[C@H](C)[C@@H](O)[C@H](N)[C@@H]2O)C[C@@H]2O[C@](O)(C[C@@H](O)C[C@@H](O)[C@H](O)CC[C@@H](O)C[C@@H](O)CC(=O)O[C@H]1C)C[C@H](O)[C@H]2C(=O)O [Amphotericin B, reference compound] | – | – | – | – | – | – | – | MIC ([1]; n = 2-3, read-out: MIC75 Values against Aspergillus fumigatus isolate NCPF2010): 0.407 µM (≈ 0.376 µg/mL); MIC75 Values against Aspergillus fumigatus isolate L98H [2, 9]: 0.195 µM (≈ 0.18 µg/mL); MIC75 Values against Aspergillus fumigatus isolate TR46 [3, 9]: 0.187 µM (≈ 0.173 µg/mL); MIC ([4]; n = 2-3, read-out: MIC75 Values against Aspergillus fumigatus isolate NCPF7099): 0.248 µM (≈ 0.229 µg/mL); MIC75 Values against Aspergillus fumigatus isolate NCPF7100 [5, 9]: 0.523 µM (≈ 0.483 µg/mL); CC50 (BEAS2B cells; 1 day incubation, resazurin, n = 3): 2.34 µM
2 | Cc1cc(N2CCN(c3ccc(C(=O)NC4CCCCC4O)cc3)CC2)ccc1OC[C@@H]1CO[C@@](Cn2cncn2)(c2ccc(F)cc2F)C1 (stereo partly drawn) [Compound (I), 4-(4-(4-(((3R,5R)-5-((1H-1,2,4-triazol-1-yl)methyl)-5-(2,4-difluorophenyl)tetrahydrofuran-3-yl)methoxy)-3-methylphenyl)piperazin-1-yl)-N-(2-hydroxycyclohexyl)benzamide] | – | – | – | – | – | – | – | GM Levels in the Lower Chamber, OD value ([6]; Day 0): 0 OD; GM Levels in the Lower Chamber, % inhibition vs. vehicle control ([6]; Day 1): 98%; GM Levels in the Lower Chamber, OD value ([6]; Day 1): 0.016 OD; GM Levels in the Lower Chamber, % inhibition vs. vehicle control ([6]; Day 2): 24%; GM Levels in the Lower Chamber, OD value ([6]; Day 2): 0.84 OD; GM Levels in the Lower Chamber, % inhibition vs. vehicle control ([6]; Day 3): 4.6%; GM Levels in the Lower Chamber, OD value ([6]; Day 3): 1.01 OD; DFB50: Days taken to reach a fungal burden of 50% of control [6]: 1.53 days
3 | Cc1cc(N2CCN(c3ccc(C(=O)N[C@@H]4CCCC[C@H]4O)cc3)CC2)ccc1OC[C@@H]1CO[C@@](Cn2cncn2)(c2ccc(F)cc2F)C1 [Compound (Ib), 4-(4-(4-(((3R,5R)-5-((1H-1,2,4-triazol-1-yl)methyl)-5-(2,4-difluorophenyl)tetrahydrofuran-3-yl)methoxy)-3-methylphenyl)piperazin-1-yl)-N-((1R,2R)-2-hydroxycyclohexyl)benzamide] | 0.00802 µM (≈ 0.00551 µg/mL) | 0.303 µM (≈ 0.208 µg/mL) | 0.334 µM (≈ 0.229 µg/mL) | 0.0862 µM (≈ 0.0592 µg/mL) | 0.0873 µM (≈ 0.06 µg/mL) | > 14.6 µM | no or little effect | –
4 | Cc1cc(N2CCN(c3ccc(C(=O)N[C@H]4CCCC[C@H]4O)cc3)CC2)ccc1OC[C@@H]1CO[C@@](Cn2cncn2)(c2ccc(F)cc2F)C1 [Compound (Ic), 4-(4-(4-(((3R,5R)-5-((1H-1,2,4-triazol-1-yl)methyl)-5-(2,4-difluorophenyl)tetrahydrofuran-3-yl)methoxy)-3-methylphenyl)piperazin-1-yl)-N-((1S,2R)-2-hydroxycyclohexyl)benzamide] | 0.00227 µM (≈ 0.00156 µg/mL) | 0.0549 µM (≈ 0.0377 µg/mL) | 0.164 µM (≈ 0.113 µg/mL) | 0.0115 µM (≈ 0.0079 µg/mL) | 0.0109 µM (≈ 0.00749 µg/mL) | > 14.6 µM | no or little effect | MIC50 [8]: 0.00186 µM (≈ 0.00128 µg/mL)
5 | Cc1cc(N2CCN(c3ccc(C(=O)N[C@@H]4CCCC[C@@H]4O)cc3)CC2)ccc1OC[C@@H]1CO[C@@](Cn2cncn2)(c2ccc(F)cc2F)C1 [Compound (Id), 4-(4-(4-(((3R,5R)-5-((1H-1,2,4-triazol-1-yl)methyl)-5-(2,4-difluorophenyl)tetrahydrofuran-3-yl)methoxy)-3-methylphenyl)piperazin-1-yl)-N-((1R,2S)-2-hydroxycyclohexyl)benzamide] | 0.00851 µM (≈ 0.00584 µg/mL) | 0.07 µM (≈ 0.0481 µg/mL) | 0.316 µM (≈ 0.217 µg/mL) | 0.0117 µM (≈ 0.00804 µg/mL) | 0.0252 µM (≈ 0.0173 µg/mL) | > 14.6 µM | no or little effect | –

Source: patent US10513511B2, “Aqueous suspension formulation comprising 4-(4-(4-(((3R,5R)-5-((1H-1,2,4-triazol-1-yl)methyl)-5-(2,4-difluoro-phenyl)tetrahydrofuran-3-yl)methoxy)-3-methylphenyl) or a pharmaceutically acceptable salt thereof” (PULMOCIDE LIMITED, priority 2015, dated 2019)
